Experimental data reported in patent US20250314644A1, “METHODS COMPRISING DETECTION OF ADP-HEPTOSE” (CHILDREN'S HOSPITAL MEDICAL CENTER, priority 2023, published 2025).

Columns and labels:
Type in all cases: cell-based, mouse
[1] = system: MAPK signaling in Dnmt3a^−/− HSPCs; test: Immunoblot of MAPK signaling
Protocol: (A) ALPK1 and TIFA mRNA expression in Dnmt3a^WT and Dnmt3a^KO HSC from the publicly available dataset GSE98191. (B) Immunoblot analysis of HSPCs from WT, Alpk1^KO, Dnmt3a^KO, and Dnmt3a^KO; Alpk1^KO mice stimulated with indicated concentrations of ADP-heptose for 30 minutes to examine MAPK signaling.
Protein concentration was evaluated by bicinchoninic acid (BCA) assay (Pierce, Cat #23225). SDS sample buffer was added to the lysates and the proteins were separated by SDS-polyacrylamide gel electrophoresis, transferred to PVDF or nitrocellulose membranes (BIO-RAD, Cat #1620112), and analyzed by immunoblotting. […] Membranes were visualized using ECL Western Blotting Substrate (Pierce, #32106) or SuperSignal West Femto Substrate (Thermo Scientific, #34096), imaged on a BIO-RAD ChemiDoc Touch Imaging system and analyzed with Image lab software 6.0.1 (Biorad) or Image J (22930834).

[2] = system: Dnmt3a^−/− HSCs; test: Serial colony replating; conditions: compared to vehicle
Protocol: (§1) (A) Heatmap representing gene expression analysis of HSPCs isolated from Dnmt3a^WT or Dnmt3a^KO or Dnmt3a^KO; Alpk1^KO mice treated with either H2O or ADP-heptose for 90 minutes in vitro as determined by RNA-sequencing from three independent replicates (1.5 fold; P<0.05). (B) Gene Set Enrichment Analysis (GSEA) of Dnmt3a^KO cells treated with ADP-heptose versus H2O. […] NES, normalized enrichment score. Absolute enrichment score (ES) and corresponding P value are shown for each pathway. (D) Enrichment of transcription factors was determined with the ENCODE and CHIP Enrichment Analysis (ChEA) libraries using genes that are overexpressed in ADP-heptose-stimulated Dnmt3a^WT versus H2O-stimulated Dnmt3a^WT (left panel) or ADP-heptose-stimulated Dnmt3a^KO versus H2O-stimulated Dnmt3a^KO HSPCs (right panel). (E) Representative flow cytometric profile of EdU+HSCs after ADP-heptose or H2O treatment. […] In each plating, colonies were scored at day 14. […] (L) Colony forming potential of Dnmt3a^WT or Dnmt3a^KO HSPCs was evaluated upon treatment with either vehicle, ADP-heptose, or ADP-heptose and UBE2N inhibitor. (M) CD34+ MDS BM and normal CD34+ BM cells treated with vehicle, ADP-heptose, or ADP-heptose and UBE2N inhibitor were evaluated for colony formation in methylcellulose. […]

[3] = system: Dnmt3a; Alpk1 deficient HSCs; test: Serial colony replating
Protocol: as §1

`Nc1ncnc2c1ncn2[C@@H]1O[C@H](COP(=O)(O)OP(=O)(O)O[C@@H]2O[C@H]([C@H](O)CO)[C@@H](O)[C@H](O)[C@@H]2O)[C@@H](O)[C@H]1O` [ADP-heptose, ADP-D-glycero-β-D-manno-heptose] was tested, and the MAPK signaling [1] was “did not result in MAPK signaling”, the serial colony formation [2] was “significantly increased serial colony formation” and the “colony replating response to ADP-heptose” value [3] was “did not respond”.
